In patent US12077503B2, “Substituted cyclic amides and their use as herbicides” (FMC CORPORATION, priority 2015, dated 2024):

Key:
Type in all cases: in vivo
[1] = test system: barnyardgrass (Echinochloa crus-galli); assay: Test G Pre-Emergence Protocol; conditions: Echinochloa crus-galli, pre-emergence, 312 h, evaluated after 13 days
Procedure, shortened: (§1)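 Visual injury (0–100) at day 13 after a single pre-emergence spray. Rates: 15.625, 62.5, 250 g/ha in acetone–water 50:50 with 0.5% Tween 20. Growth conditions: 24/16° C, 14 h light, 65% humidity.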

[2] = test system: corn (Zea mays); assay: Test G Pre-Emergence Protocol; conditions: Zea mays, pre-emergence, 312 h, evaluated after 13 days
Procedure, shortened: as §1

[3] = test system: giant foxtail (Setaria faberi); assay: Test G Pre-Emergence Protocol; conditions: Setaria faberi, pre-emergence, 312 h, evaluated after 13 days
Procedure, shortened: as §1

[4] = test system: ivy-leaved morning glory (Ipomoea hederacea); assay: Test G Pre-Emergence Protocol; conditions: Ipomoea, pre-emergence, 312 h, evaluated after 13 days
Procedure, shortened: as §1

[5] = test system: redroot pigweed (Amaranthus retroflexus); assay: Test G Pre-Emergence Protocol; conditions: Amaranthus retroflexus, pre-emergence, 312 h, evaluated after 13 days
Procedure, shortened: as §1

[6] = test system: velvetleaf (Abutilon theophrasti); assay: Test G Pre-Emergence Protocol; conditions: Abutilon theophrasti, pre-emergence, 312 h, evaluated after 13 days
Procedure, shortened: as §1

[7] = test system: barnyardgrass (Echinochloa crus-galli); assay: Test G Post-Emergence Protocol; conditions: Echinochloa crus-galli, post-emergence, 312 h, read-out: Barnyardgrass damage rating
Procedure, shortened: (§2)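 Pot-grown seedlings, 8 days old, raised in a glasshouse at 24/16 °C day/night with 14 h light and 65% humidity, were sprayed post-emergence with test compound in acetone/water (50:50) plus 0.5% Tween 20 at 15.625, 62.5 or 250 g/ha. Damage was scored visually 13 days later on a 0–100 scale (100 = total damage).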

[8] = test system: corn (Zea mays); assay: Test G Post-Emergence Protocol; conditions: Zea mays, post-emergence, 312 h, read-out: Corn damage rating
Procedure, shortened: as §2

[9] = test system: giant foxtail (Setaria faberi); assay: Test G Post-Emergence Protocol; conditions: Setaria faberi, post-emergence, 312 h, read-out: Foxtail, Giant damage rating
Procedure, shortened: as §2

[10] = test system: ivy-leaved morning glory (Ipomoea hederacea); assay: Test G Post-Emergence Protocol; conditions: Ipomoea, post-emergence, 312 h, read-out: Morningglory, Ivy-leaved damage rating
Procedure, shortened: as §2

[11] = test system: redroot pigweed (Amaranthus retroflexus); assay: Test G Post-Emergence Protocol; conditions: Amaranthus retroflexus, post-emergence, 312 h, read-out: Pigweed, Redroot damage rating
Procedure, shortened: as §2

[12] = test system: velvetleaf (Abutilon theophrasti); assay: Test G Post-Emergence Protocol; conditions: Abutilon theophrasti, post-emergence, 312 h, read-out: Velvetleaf damage rating
Procedure, shortened: as §2

[13] = 15.625 g ai/ha, evaluated after 13 days (100=total damage to plant; 0=no damage to plant)
[14] = 62.5 g ai/ha, evaluated after 13 days, 100=total damage to plant, 0=no damage to plant
[15] = 250 g ai/ha, evaluated after 13 days, 100=total damage to plant, 0=no damage to plant

Question: What does the source list for `Cc1cccc(NC(=O)[C@H]2C(=O)N(C)C[C@@H]2c2ccc(C(F)(F)F)cc2)[n+]1[O-]` (racemic) [Compound 1805]?
Answer: pest or weed control at 15.625 g/ha ([1]; 15.625 g ai/ha, read-out: Barnyardgrass damage rating (100=total damage to plant; 0=no damage to plant)): 0%; pest or weed control at 62.5 g/ha ([1]; 62.5 g ai/ha, 100=total damage to plant, 0=no damage to plant, read-out: Barnyardgrass damage rating): 0%; pest or weed control at 250 g/ha ([1]; 250 g ai/ha, read-out: Barnyardgrass damage rating (100=total damage to plant; 0=no damage to plant)): 0%; plant injury at 15.625 g/ha ([2]; 15.625 g ai/ha, read-out: Corn damage rating (100=total damage to plant; 0=no damage to plant)): 0%; plant injury at 62.5 g/ha ([2]; 62.5 g ai/ha, 100=total damage to plant, 0=no damage to plant, read-out: Corn damage rating): 0%; plant injury at 250 g/ha ([2]; 250 g ai/ha, read-out: Corn damage rating (100=total damage to plant; 0=no damage to plant)): 0%; pest or weed control at 15.625 g/ha ([3]; 15.625 g ai/ha, read-out: Foxtail, Giant damage rating (100=total damage to plant; 0=no damage to plant)): 0%; pest or weed control at 62.5 g/ha ([3]; 62.5 g ai/ha, 100=total damage to plant, 0=no damage to plant, read-out: Foxtail, Giant damage rating): 0%; pest or weed control at 250 g/ha ([3]; 250 g ai/ha, read-out: Foxtail, Giant damage rating (100=total damage to plant; 0=no damage to plant)): 10%; pest or weed control at 15.625 g/ha ([4]; 15.625 g ai/ha, read-out: Morningglory, Ivy-leaved damage rating (100=total damage to plant; 0=no damage to plant)): 0%; pest or weed control at 62.5 g/ha ([4]; 62.5 g ai/ha, 100=total damage to plant, 0=no damage to plant, read-out: Morningglory, Ivy-leaved damage rating): 0%; pest or weed control at 250 g/ha ([4]; 250 g ai/ha, read-out: Morningglory, Ivy-leaved damage rating (100=total damage to plant; 0=no damage to plant)): 0%; pest or weed control at 15.625 g/ha ([5]; 15.625 g ai/ha, read-out: Pigweed, Redroot damage rating (100=total damage to plant; 0=no damage to plant)): 20%; pest or weed control at 62.5 g/ha ([5]; 62.5 g ai/ha, 100=total damage to plant, 0=no damage to plant, read-out: Pigweed, Redroot damage rating): 10%; pest or weed control at 250 g/ha ([5]; 250 g ai/ha, read-out: Pigweed, Redroot damage rating (100=total damage to plant; 0=no damage to plant)): 30%; pest or weed control at 15.625 g/ha ([6]; 15.625 g ai/ha, read-out: Velvetleaf damage rating (100=total damage to plant; 0=no damage to plant)): 0%; pest or weed control at 62.5 g/ha ([6]; 62.5 g ai/ha, 100=total damage to plant, 0=no damage to plant, read-out: Velvetleaf damage rating): 20%; pest or weed control at 250 g/ha ([6]; 250 g ai/ha, read-out: Velvetleaf damage rating (100=total damage to plant; 0=no damage to plant)): 20%; pest or weed control at 15.625 g/ha [7, 13]: 0%; pest or weed control at 62.5 g/ha [7, 14]: 0%; pest or weed control at 250 g/ha [7, 15]: 0%; plant injury at 15.625 g/ha [8, 13]: 0%; plant injury at 62.5 g/ha [8, 14]: 0%; plant injury at 250 g/ha [8, 15]: 0%; pest or weed control at 15.625 g/ha [9, 13]: 0%; pest or weed control at 62.5 g/ha [9, 14]: 30%; pest or weed control at 250 g/ha [9, 15]: 40%; pest or weed control at 15.625 g/ha [10, 13]: 0%; pest or weed control at 62.5 g/ha [10, 14]: 30%; pest or weed control at 250 g/ha [10, 15]: 30%; pest or weed control at 15.625 g/ha [11, 13]: 10%; pest or weed control at 62.5 g/ha [11, 14]: 60%; pest or weed control at 250 g/ha [11, 15]: 40%; pest or weed control at 15.625 g/ha [12, 13]: 0%; pest or weed control at 62.5 g/ha [12, 14]: 20%; pest or weed control at 250 g/ha [12, 15]: 30%
